Laboratory results: publication PMC10067601, “Identification of a peptide ligand for human ALDH3A1 through peptide phage display: Prediction and characterization of protein interaction sites and inhibition of ALDH3A1 enzymatic activity” (Frontiers in Molecular Biosciences, 2023)
“Also recorded” adds a separate entry of the source.

Tests used:
[1] = biological target: T1, human recombinant ALDH3A1 (Homo sapiens, UniProt P30838); test: Peptide ELISA, P1 coated, serially diluted ALDH3A1; assay type: binding
T1 construct: 6xHis (C); made in house; host or cells: E. coli, with chaperone co-expression (pG-KJE8 plasmid)
T1 sequence (P30838 1-453): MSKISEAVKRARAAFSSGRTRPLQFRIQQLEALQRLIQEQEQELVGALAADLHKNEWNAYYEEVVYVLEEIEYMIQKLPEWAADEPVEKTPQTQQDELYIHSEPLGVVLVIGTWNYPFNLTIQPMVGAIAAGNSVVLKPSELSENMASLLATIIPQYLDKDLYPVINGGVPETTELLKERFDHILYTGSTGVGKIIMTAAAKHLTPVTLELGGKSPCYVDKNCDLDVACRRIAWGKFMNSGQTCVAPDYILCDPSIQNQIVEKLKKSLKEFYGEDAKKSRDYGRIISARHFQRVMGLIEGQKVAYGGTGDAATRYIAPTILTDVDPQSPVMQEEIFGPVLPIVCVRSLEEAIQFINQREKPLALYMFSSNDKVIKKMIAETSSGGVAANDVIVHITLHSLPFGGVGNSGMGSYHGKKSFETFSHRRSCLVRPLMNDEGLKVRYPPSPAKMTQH
Procedure: An ELISA with the synthetic peptide P1 was performed as described ([Thermo Scientific, 2010]). P1 (50 μg/mL) diluted in Coating Buffer (0.2 M sodium carbonate/bicarbonate, pH 9.4) was coated overnight at 4°C under agitation. After three washes with TBST (25 mM Tris, 0.15 M sodium chloride, pH 7.2 containing 0.1% Tween 20), the wells were blocked with 300 μL per well with Blocking Buffer (TBST containing 4% w/v BSA) overnight at 4°C under agitation. After another three washes with TBST, 100 μL of 2-fold serial dilutions of ALDH3A1 in Blocking Buffer were added in each well and the plate was incubated for 1 h at RT under gentle agitation. Following four washes with TBST, 100 μL of rabbit anti-ALDH3A1 antibody, diluted 1:1,000 in Blocking Buffer, were added and the plate was incubated for 2 h at RT under gentle agitation. After the plate was washed 4 times with TBST, it was incubated with 100 μL of anti-rabbit IgG horseradish-peroxidase conjugated and diluted 1:5,000 in Blocking Buffer, for 2 h at RT. Then, the plate was washed 6 times with TBST, and 100 μL of ABTS [2,2′-azino-bis(3-ethylbenzothiazoline-6-sulfonic acid)] solution (ready-to-use) were added. After 1 h of incubation in darkness at RT under agitation, the plate was measured at 405 nm, with wavelength correction at 650 nm, using an ELISA plate reader (EnSpire Multimode Plate Reader, Perkin Elmer, Waltham, MA, United States). During wash steps, liquids were dispersed in the sink, the plate was tapped vigorously on a paper towel, refilled with Wash Buffer, and incubated for 5 min at RT under agitation.
Next, peptide ELISA was performed to test whether the synthetic peptide P1 interacts with the hALDH3A1 protein. Specifically, P1 was coated in abundance in a 96-well plate and subsequently, hALDH3A1 was added to each well in serial dilutions. For detecting the putative peptide/ALDH3A1 interaction a rabbit anti-ALDH3A1 antibody along with a secondary horseradish peroxidase-conjugated anti-rabbit antibody were used in a sandwich ELISA. In each step, the excessive, unbound ALDH3A1 or antibody was removed through repetitive washes, while a ready-to-use ABTS solution was used as a colorimetric substrate for detecting the presence of horseradish peroxidase activity.

[2] = biological target: T1, human recombinant ALDH3A1; test: ALDH3A1 enzymatic assay, benzaldehyde oxidation; assay type: biochemical; settings: for Enzymatic Activity, AVERAGE %: mean of triplicates, STDEV % in r34
Procedure: The ability of ALDH3A1 to oxidize benzaldehyde in the presence of P1 was estimated by monitoring the production of NADH as described earlier with minor modifications ([Voulgaridou et al., 2013]). Human recombinant ALDH3A1 was combined with P1 and diluted in Milli-Q water, at 1:1,000. The final reaction was placed in a 0.5 mL quartz cuvette containing 50 mM Tris-HCl pH 8.5, 50 mM 2-Mercaptoethanol, 1.5 mM […], 20 nM ALDH3A1, 20 μM P1, and 1 mM Benzaldehyde. The reaction was initiated by the addition of the benzaldehyde substrate and was monitored at 340 nm for 5 min using a spectrophotometer (Libra S22, Biochrom Ltd, Cambridge, United Kingdom). In the case of CB29, the final reaction contained 40 μM CB29. Enzymatic activity was calculated as dOD/dT∗molarextinctioncoeiffcient∗pathcorrection∗enzyme^′sconcentrationinfinalreaction where, dT = minutes, molar extinction coefficient = 6220 M^-1/cm, path correction = 1 cm.
All experiments were conducted in triplicates and presented as % of the control’s enzymatic activity. As a control, the final reaction contained the respective Milli-Q water volume without P1 or CB29.
At least three independent experiments were performed for each condition tested. The values are expressed as the mean ± standard deviation (SD). Statistical analysis was performed with Graph Pad Prism software (version 9.4.1) (Graph Pad Inc., La Jolla, CA, United States). For all assays, statistical differences between groups were evaluated either by Student’s t-test or ANOVA, for multiple comparisons, followed by Dunnett’s or Tukey’s test. A level of p < 0.01 was considered statistically significant.

[3] = X is log(dilution of ALDH3A1), P1 50 μg/ml coated
[4] = 20 μM P1 (n = 4) or 40 μM CB29 (n = 3)

Q: For “WPTYVSPFRSPP [P1, …, prevailing 12-mer phage display peptide, synthesised by Genecust]”, which “Bottom, 95% CI (profile likelihood)” value ([1]; 4PL fit, P1 50 μg/ml coated) is on record?
A: Its value is -0,6000 to 0,3171.

Q: And the “HillSlope, 95% CI (profile likelihood)” value ([1]; 4PL fit, P1 50 μg/ml coated)?
A: The value was 0,7500 to 2,101.

Q: And the “LogIC50, 95% CI (profile likelihood)” value ([1]; 4PL fit, P1 50 μg/ml coated)?
A: The value was -2,813 to -1,638.

Q: And the “R squared (4PL fit)” value ([1]; 4PL fit, P1 50 μg/ml coated)?
A: The value was 0.9777.

Q: And the “Top, 95% CI (profile likelihood)” value ([1]; 4PL fit, P1 50 μg/ml coated)?
A: Its value is 0,5633 to 0,6007.

Q: What about the “Binding of P1 to ALDH3A1” value ([1]; P1 50 μg/mL coated, 2-fold serial dilutions of ALDH3A1, 405 nm-650 nm) of the same sequence?
A: The value was “ALDH3A1 dose-dependent increase in absorbance was observed, indicating the specific binding of P1 to ALDH3A1; also recorded: confirmed the interaction of ALDH3A1 with the synthetic peptide P1 in a concentration-dependent manner”.

Q: And the “Bottom (4PL fit)” value ([1]; Sigmoidal, 4PL, X is log(dilution of ALDH3A1), P1 50 μg/ml coated)?
A: The value was 0.2386.

Q: And the “Top (4PL fit)” value ([1]; Sigmoidal, 4PL, X is log(dilution of ALDH3A1), P1 50 μg/ml coated, OD 405nm - 650nm)?
A: The value was 0.5773.

Q: What about the “HillSlope (4PL fit)” value [1, 3] of the same sequence?
A: The value was 1.408.

Q: What about the “LogIC50 (4PL fit)” value [1, 3] of the same sequence?
A: The value was -1.813.

Q: What about the “Span (4PL fit)” value [1, 3] of the same sequence?
A: Its value is 0.3387.

Q: What about the “Enzymatic activity, % of control, AVERAGE of experiments” value ([2]; 20 μM P1 (4 experiments) or 40 μM CB29 (3 experiments), 1 mM benzaldehyde, 20 nM ALDH3A1, pH 8.5, 340 nm, 5 min) of the same sequence?
A: The value was 53.6795%.

Q: What about the “25% Percentile, % of control activity” value [2, 4] of the same sequence?
A: The value was 48.44.

Q: What about the “75% Percentile, % of control activity” value [2, 4] of the same sequence?
A: Its value is 60.33.

Q: And the “Lower 95% CI of mean, % of control activity” value [2, 4]?
A: Its value is 43.07.

Q: What about the “Maximum, % of control activity” value [2, 4] of the same sequence?
A: Its value is 63.01.

Q: What about the “Mean, % of control activity” value [2, 4] of the same sequence?
A: Its value is 53.68.

Q: And the “Median, % of control activity” value [2, 4]?
A: The value was 52.27.

Q: What about the “Minimum, % of control activity” value [2, 4] of the same sequence?
A: The value was 47.18.

Q: What about the “Upper 95% CI of mean, % of control activity” value [2, 4] of the same sequence?
A: Its value is 64.29.

Q: What about the “Reduction in hALDH3A1 activity against benzaldehyde” value ([2]; 20 μM P1, 20 nM ALDH3A1, 1 mM benzaldehyde, 50 mM Tris-HCl pH 8.5, 50 mM 2-mercaptoethanol, NADH at 340 nm, 5 min, vs control) of the same sequence?
A: Its value is ~50%.

Q: And the “Enzymatic activity, % of control (Mean%)” value ([2]; 20 μM P1, P1 Experiment 1, mean of n = 3, 1 mM benzaldehyde, 20 nM ALDH3A1, pH 8.5, 340 nm)?
A: The value was 52.2857%.

Q: What about the “Enzymatic activity, % of control (Mean%)” value ([2]; 20 μM P1, P1 Experiment 2, mean of n = 3, 1 mM benzaldehyde, 20 nM ALDH3A1, pH 8.5, 340 nm) of the same sequence?
A: The value was 63.0078%.

Q: And the “Enzymatic activity, % of control (Mean%)” value ([2]; 20 μM P1, fourth experiment line of Sheet6, mean of n = 3, 1 mM benzaldehyde, 20 nM ALDH3A1, pH 8.5, 340 nm)?
A: The value was 47.1765%.

Q: And the “Enzymatic activity, % of control (Mean%)” value ([2]; 20 μM P1, third experiment line of Sheet6, mean of n = 3, 1 mM benzaldehyde, 20 nM ALDH3A1, pH 8.5, 340 nm)?
A: Its value is 52.2481%.

Q: And the “Effectiveness of inhibition compared with CB29” value ([2]; 20 μM P1 vs 40 μM CB29, benzaldehyde)?
A: The value was “comparable to the inhibition capacity of the known hALD3A1 inhibitor CB29; also recorded: comparable with the inhibition caused by the CB29 molecule”.

Q: And the “95,00% CI of diff, control vs. compound” value ([2]; Dunnett's multiple comparisons, 20 μM P1 or 40 μM CB29)?
A: Its value is 37,24 to 55,40.

Q: And the “Mean Diff, control vs. compound” value ([2]; Dunnett's multiple comparisons, 20 μM P1 or 40 μM CB29, % of control activity)?
A: Its value is 46.32.

Q: And the “Enzymatic Activity, AVERAGE %” value ([2]; Experiment 3, 20μM P1, % of control (control = 100))?
A: Its value is 52.2481%.

Q: And the “Enzymatic Activity, AVERAGE of triplicates” value ([2]; Experiment 3, 20μM P1, mean of triplicates, STDEV in r31)?
A: The value was 7.566 µmol/min/mg.

Q: And the “Enzymatic Activity, AVERAGE %” value ([2]; Experiment 4, 20μM P1, % of control (control = 100))?
A: Its value is 47.1765%.

Q: What about the “Enzymatic Activity, AVERAGE of triplicates” value ([2]; Experiment 4, 20μM P1, mean of triplicates, STDEV in r31) of the same sequence?
A: The value was 9.945 µmol/min/mg.

Q: What about the “Enzymatic Activity, AVERAGE of triplicates” value ([2]; P1 Experiment 1, 20 μM, mean of n = 3) of the same sequence?
A: Its value is 7.9584 µmol/min/mg.

Q: And the “Enzymatic Activity, AVERAGE of triplicates” value ([2]; P1 Experiment 2, 20 μM, mean of n = 3)?
A: Its value is 11.9878 µmol/min/mg.
